In PubChem BioAssay (NCI):
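Results reflect a 48-hour exposure of cells in 96-well plates to compound at five concentrations. GI50 marks 50% less growth. TGI marks complete inhibition of growth.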

Experiments:
Test in all cases: inhibition of tumour cell growth, NCI panel, 48 h
[1] = system: OVCAR-5 ovarian
[2] = system: 786-0 renal
[3] = system: A498 renal
[4] = system: A549 NSCLC
[5] = system: ACHN renal
[6] = system: CAKI-1 renal
[7] = system: CCRF-CEM leukemia
[8] = system: COLO 205 colon
[9] = system: DU-145 prostate
[10] = system: EKVX NSCLC
[11] = system: HCC-2998 colon
[12] = system: HCT-116 colon
[13] = system: HCT-15 colon
[14] = system: HL-60(TB) leukemia
[15] = system: HOP-62 NSCLC
[16] = system: HOP-92 NSCLC
[17] = system: HS 578T breast
[18] = system: HT29 colon
[19] = system: KM12 colon
[20] = system: M14 melanoma
[21] = system: MALME-3M melanoma
[22] = system: MCF7 breast
[23] = system: MDA-MB-231 breast
[24] = system: MOLT-4 leukemia
[25] = system: NCI-H226 lung
[26] = system: NCI-H23 lung
[27] = system: NCI-H460 lung
[28] = system: NCI-H522 lung
[29] = system: NCI/ADR-RES ovarian
[30] = system: OVCAR-4 ovarian
[31] = system: OVCAR-8 ovarian
[32] = system: PC-3 prostate
[33] = system: RPMI-8226 leukemia
[34] = system: RXF 393 renal
[35] = system: SF-268 CNS
[36] = system: SF-295 CNS
[37] = system: SF-539 CNS
[38] = system: SK-MEL-2 melanoma
[39] = system: SK-MEL-28 melanoma
[40] = system: SK-MEL-5 melanoma
[41] = system: SK-OV-3 ovarian
[42] = system: SN12C renal
[43] = system: SNB-19 CNS
[44] = system: SNB-75 CNS
[45] = system: SW-620 colon
[46] = system: TK-10 renal
[47] = system: U251 CNS
[48] = system: UO-31 renal

C#CC[C@@H]1C[C@]2(C)[C@H]3CC=C4[C@H]5[C@@H](C)[C@H](C)CC[C@]5(C(=O)NCCCN5CCN(CCCN)CC5)CC[C@@]4(C)[C@]3(C)CC[C@H]2C(C)(C)[C@H]1OC(C)=O
GI50 [1]: 1.61 µM | TGI [1]: 3.02 µM

COc1ccc(-c2nc(Nc3ccc(-c4nc5ccccc5[nH]4)cc3)nc(N3CCOCC3)n2)cc1
GI50 [2]: 1.44 µM | TGI [2]: 3.23 µM | GI50 [3]: 1.52 µM | TGI [3]: 3.57 µM | GI50 [4]: 3.24 µM | TGI [4]: > 100 µM | GI50 [5]: 2.55 µM | TGI [5]: > 100 µM | GI50 [6]: 1.98 µM | TGI [6]: 5.02 µM | GI50 [7]: 3.11 µM | TGI [7]: > 100 µM | GI50 [8]: 1.92 µM | TGI [8]: 4.21 µM | GI50 [9]: 4.54 µM | TGI [9]: > 100 µM | GI50 [10]: 2.6 µM | TGI [10]: > 100 µM | GI50 [11]: 3.09 µM | TGI [11]: > 100 µM | GI50 [12]: 1.9 µM | TGI [12]: 3.54 µM | GI50 [13]: 1.67 µM | TGI [13]: 4.78 µM | GI50 [14]: 1.94 µM | TGI [14]: 5.67 µM | GI50 [15]: 2.11 µM | TGI [15]: 5.3 µM | GI50 [16]: 1.8 µM | TGI [16]: 3.74 µM | GI50 [17]: 1.76 µM | TGI [17]: 6.96 µM | GI50 [18]: 2.23 µM | TGI [18]: 5.39 µM | GI50 [19]: 2.06 µM | TGI [19]: 5.69 µM | GI50 [20]: 1.94 µM | TGI [20]: 4.03 µM | GI50 [21]: 2.05 µM | TGI [21]: 3.95 µM | GI50 [22]: 2.59 µM | TGI [22]: > 100 µM | GI50 [23]: 1.63 µM | TGI [23]: 4.76 µM | GI50 [24]: 2.15 µM | TGI [24]: 6.13 µM | GI50 [25]: 3.32 µM | TGI [25]: 8.6 µM | GI50 [26]: 2.57 µM | TGI [26]: 9.9 µM | GI50 [27]: 2.48 µM | TGI [27]: 6.51 µM | GI50 [28]: 2.36 µM | TGI [28]: 5.85 µM | GI50 [29]: 3.18 µM | TGI [29]: 26.7 µM | GI50 [30]: 3.13 µM | TGI [30]: 13 µM | GI50 [1]: 2.7 µM | TGI [1]: 8.9 µM | GI50 [31]: 3.26 µM | TGI [31]: 10.8 µM | GI50 [32]: 2.39 µM | TGI [32]: 6.66 µM | GI50 [33]: 1.93 µM | TGI [33]: 6.54 µM | GI50 [34]: 0.459 µM | TGI [34]: 2.51 µM | GI50 [35]: 2.82 µM | TGI [35]: 26.5 µM | GI50 [36]: 1.59 µM | TGI [36]: 4.7 µM | GI50 [37]: 1.63 µM | TGI [37]: 3.72 µM | GI50 [38]: 2.33 µM | TGI [38]: 5.49 µM | GI50 [39]: 1.8 µM | TGI [39]: 4.28 µM | GI50 [40]: 1.79 µM | TGI [40]: 3.36 µM | GI50 [41]: 2.37 µM | TGI [41]: 5.53 µM | GI50 [42]: 3.19 µM | TGI [42]: 23 µM | GI50 [43]: 3.49 µM | TGI [43]: > 100 µM | GI50 [44]: 1.8 µM | TGI [44]: 10.5 µM | GI50 [45]: 2.19 µM | TGI [45]: 4.8 µM | GI50 [46]: 2.91 µM | TGI [46]: 8.54 µM | GI50 [47]: 2.04 µM | TGI [47]: 13.6 µM | GI50 [48]: 2.16 µM | TGI [48]: 5.64 µM
